In US9321772B2, “Substituted pyrazolo[3,4-D]pyrimidines and uses thereof” (The Regents of the University of California, priority 2011, dated 2016):
“Also recorded” adds a separate entry of the source. One block for each compound: values may come before it.

Experiments:
[1] = tested on: ptc>dRet^MEN2B wing cells; experiment: Wing-based assay for transformation and cell migration (ptc>dRetMEN2B); assay type: in vivo, Drosophila
Source text: FIG. 4E. Quantification of ptc>dRet^MEN2B phenotypes. Invasion was established by scoring for single/groups of GFP-labeled cells that relocated away from the ptc boundary (FIG. 4C, asterisks). Basal migration was scored as indentation of the apical surface (see FIG. 2B, arrows). Proliferation was scored as significant widening of the ptc boundary. The number of wings analyzed under each condition is indicated in brackets.
We previously developed a wing-based assay for transformation and cell migration that we utilized to explore Ras- and Src-based tumorigenesis (Vidal, M., D. E. Larson, and R. L. Cagan, Dev Cell, 2006. 10(1): p. 33-44). In this assay, the ptc-GAL4 driver directed oncogene expression in a stripe along the anterior-posterior axis; oncogene-based transformation led to over-proliferation, epithelial-to-mesenchymal transition (EMT), and cell migration away from the ptc domain.

S6K = S6K (Homo sapiens, UniProt P23443); experiment: In vitro kinase assay, S6K; assay type: biochemical; settings: in vitro kinase profile, 1 μM
Sequence of S6K (P23443 whole entry, canonical isoform): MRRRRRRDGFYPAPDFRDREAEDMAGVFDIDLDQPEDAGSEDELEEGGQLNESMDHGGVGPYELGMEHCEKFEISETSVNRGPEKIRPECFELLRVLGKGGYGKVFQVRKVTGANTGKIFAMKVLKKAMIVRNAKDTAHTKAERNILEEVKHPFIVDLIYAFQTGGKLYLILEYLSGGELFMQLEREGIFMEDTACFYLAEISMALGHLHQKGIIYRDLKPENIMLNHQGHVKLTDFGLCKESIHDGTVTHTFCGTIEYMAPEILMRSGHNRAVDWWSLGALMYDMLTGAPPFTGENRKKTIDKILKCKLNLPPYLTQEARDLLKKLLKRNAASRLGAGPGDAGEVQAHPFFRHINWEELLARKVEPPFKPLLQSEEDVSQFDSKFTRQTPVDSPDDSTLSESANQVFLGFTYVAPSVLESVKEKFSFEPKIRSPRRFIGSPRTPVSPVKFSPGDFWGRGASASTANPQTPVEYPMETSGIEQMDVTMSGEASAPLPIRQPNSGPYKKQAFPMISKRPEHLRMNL
Protocol: (§1) Using in vitro kinase assays we tested AD57, AD36, and AD58 at 1 μM for activity against approximately one-half of the human kinome (FIG. 1E): 165 Ser/Thr kinases, 91 Tyr kinases, and 10 PI kinases were assayed, totaling 266 kinases (244 distinct kinases plus 22 mutant isoforms; see FIG. 6A-6C, FIG. 7A-7F, and FIG. 8 for measured inhibition values).
(§2) At least three major pathways are required for dRet^MEN2B-mediated transformation: Ras, Src, and glucose metabolism/PI3K (FIG. 3A; Ref (Read, R. D. et al., Genetics, 2005. 171(3): p. 1057-81)). We utilized in vitro kinase assays to assess compound activity against relevant kinases from each of these pathways, specifically Ret, B-Raf, Src, Tor, and S6K (FIG. 3B).

ptc>dRet^MEN2B flies = experiment: Drosophila ptc>dRetMEN2B viability assay; assay type: in vivo; settings: for rescue of ptc>dRetMEN2B viability (pupae, adults), in words: oral administration, drug mixed into food
Source text: FIG. 1A. Suppression of Ret^MEN2B-induced developmental block and whole animal toxicity were scored based on number of embryos (n) that survived as pupae (x) and adults (y). Drugs were mixed into food and fed to flies starting at larval stages.
FIG. 1B. Percent viability of control or drug treated flies determined for pupae (x/n) and adults (y/n).
Described herein is a Drosophila MEN2B model in which an intracellular mutation in the Drosophila Ret ortholog (dRet) was targeted to the eye (Read, R. D. et al., Genetics, 2005. 171(3): p. 1057-81). […] The screen is conducted in developing drosophila embryos. Under normal circumstances, drosophila embryos pass through four developmental steps: embryo→larvae→pupae→adult. […] We calibrated the ptc>dRetMEN2B assay to permit 50% survival to pupariation and 0% survival to adulthood. Mutated forms of RET are believed to be causative in human thyroid cancers including multiple endocrine neoplasia types 2A and 2B (MEN2A and MEN2B). The screen identifies small molecules that (a) suppress the toxicity induced by oncogenic RET and (b) allow flies to develop to functional adults. […] 64(19): p. 7099-109; Sun, L. et al., J Med Chem, 2003. 46(7): p.

B-Raf = B-Raf (Homo sapiens, UniProt P15056); experiment: In vitro kinase assay, B-Raf; assay type: biochemical; settings: in vitro kinase profile, 1 μM
Sequence of B-Raf (P15056 whole entry): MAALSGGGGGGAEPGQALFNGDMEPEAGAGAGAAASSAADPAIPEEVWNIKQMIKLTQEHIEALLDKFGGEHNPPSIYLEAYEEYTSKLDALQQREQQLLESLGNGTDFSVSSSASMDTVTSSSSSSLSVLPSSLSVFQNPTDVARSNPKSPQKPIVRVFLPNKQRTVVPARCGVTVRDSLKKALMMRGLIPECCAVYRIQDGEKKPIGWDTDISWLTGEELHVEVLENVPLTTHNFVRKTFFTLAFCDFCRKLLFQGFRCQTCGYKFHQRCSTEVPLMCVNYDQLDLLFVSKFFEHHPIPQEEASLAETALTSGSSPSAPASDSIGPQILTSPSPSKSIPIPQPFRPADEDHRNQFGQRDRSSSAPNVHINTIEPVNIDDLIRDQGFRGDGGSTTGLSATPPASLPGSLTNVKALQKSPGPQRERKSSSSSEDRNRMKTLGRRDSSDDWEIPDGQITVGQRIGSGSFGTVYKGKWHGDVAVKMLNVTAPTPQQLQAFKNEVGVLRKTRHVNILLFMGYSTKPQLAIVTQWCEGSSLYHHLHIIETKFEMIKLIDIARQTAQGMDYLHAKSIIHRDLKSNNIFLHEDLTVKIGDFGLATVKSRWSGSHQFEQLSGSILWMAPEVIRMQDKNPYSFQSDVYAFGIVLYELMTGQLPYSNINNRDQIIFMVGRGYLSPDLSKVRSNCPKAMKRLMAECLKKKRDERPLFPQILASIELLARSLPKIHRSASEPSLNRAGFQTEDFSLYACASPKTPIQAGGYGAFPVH
Protocol: as §1, §2

Src = Src (Homo sapiens, UniProt P12931); experiment: In vitro kinase assay, Src; assay type: biochemical; settings: in vitro kinase profile, 1 μM
Sequence of Src (P12931 whole entry): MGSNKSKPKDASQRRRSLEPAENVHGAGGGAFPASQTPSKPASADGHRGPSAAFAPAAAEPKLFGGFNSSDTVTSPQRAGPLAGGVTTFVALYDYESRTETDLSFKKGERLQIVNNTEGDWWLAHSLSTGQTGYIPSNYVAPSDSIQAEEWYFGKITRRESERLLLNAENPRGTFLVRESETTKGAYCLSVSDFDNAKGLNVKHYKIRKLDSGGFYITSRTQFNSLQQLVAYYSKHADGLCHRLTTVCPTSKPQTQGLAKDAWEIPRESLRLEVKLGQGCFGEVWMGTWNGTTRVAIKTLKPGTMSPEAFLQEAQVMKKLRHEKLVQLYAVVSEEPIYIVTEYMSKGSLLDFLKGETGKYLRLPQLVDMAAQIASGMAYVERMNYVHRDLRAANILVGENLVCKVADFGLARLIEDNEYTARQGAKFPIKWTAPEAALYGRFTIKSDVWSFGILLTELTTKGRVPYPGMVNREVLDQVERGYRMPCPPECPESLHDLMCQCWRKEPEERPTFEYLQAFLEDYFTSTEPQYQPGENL
Protocol: as §1, §2

Ret kinase domain = target: T1, Ret kinase domain (Homo sapiens, UniProt P07949); experiment: In vitro kinase assay, Ret; assay type: biochemical; settings: in vitro kinase profile, 1 μM
T1 construct: determined against a purified form of the Ret kinase domain
T1 sequence (P07949 724-1016 limits assumed): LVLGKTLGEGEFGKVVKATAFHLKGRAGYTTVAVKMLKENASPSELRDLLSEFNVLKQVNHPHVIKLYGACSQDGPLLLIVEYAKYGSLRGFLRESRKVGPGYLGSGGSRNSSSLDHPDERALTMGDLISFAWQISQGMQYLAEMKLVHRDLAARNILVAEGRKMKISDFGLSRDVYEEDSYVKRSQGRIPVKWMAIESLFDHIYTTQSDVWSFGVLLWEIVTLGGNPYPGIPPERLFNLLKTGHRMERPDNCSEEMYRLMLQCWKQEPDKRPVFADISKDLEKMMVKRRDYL
Protocol: FIG. 1D. […] Half maximal inhibitory concentrations (IC50) were determined against a purified form of the Ret kinase domain.
as §1, §2

mTor = mTor (Homo sapiens, UniProt P42345); experiment: In vitro kinase assay, mTor; assay type: biochemical; settings: in vitro kinase profile, 1 μM
Protocol: as §1, §2

[2] = tested on: TT cell tumors in athymic nu/nu mice; experiment: MEN2 (TT) mouse xenograft model; assay type: in vivo; settings: nude mice transplanted with TT cells; oral gavage; median per group
Protocol: FIG. 11. […] TT thyroid cancer cells were implanted into athymic nu/nu mice subcutaneously into the right flank under the conditions listed. Upon establishment of tumors, drugs were administered by oral gavage (5 days ON/2 days OFF schedule). Tumors were measured using digital calipers. […] VD=vandetanib.
FIG. 18A-18D. […] FIG. 18A. MEN2B (MZ) thyroid cancer cells were treated with the indicated concentrations of each inhibitor (7 days) and cell viability was quantitated by MTT assay. FIG. 18B. MEN2A (TT) thyroid cancer cells were treated with the indicated concentrations of each inhibitor (7 days) and cell viability was quantitated by MTT assay. FIG. 18C. […] Change in tumor volume was calculated per mouse. Values shown are the median percent change per group. 20 and 10 animals for vehicle and drug treated mice, respectively, were analyzed. FIG. 18D. Body weight measurements of AD80, Vandetanib (VD) and vehicle treated nude mice transplanted with TT cells. Values shown are the median of 20 and 10 animals for vehicle and drug treated mice, respectively.
TT-based tumors were grown for 46 days in athymic nu/nu male mice prior to drug administration.

[3] = tested on: MEN2A (TT) thyroid cancer cells; experiment: Immunoblot analysis of drug-treated TT cells; assay type: cell-based, human; settings: 1 hour of treatment
Protocol: (§3) FIG. 19. […] MEN2A (TT) and MEN2B (MZ) thyroid cancer cells were treated with the indicated drugs for 3 days at a final concentration of 2 μM. Cell lystates were immunoblotted for protein markers of apoptosis. Vandetanib (vand.) was included for comparison.
(§4) FIG. 20A-20B. […] FIG. 20A. MEN2B (MZ) and FIG. 20B. MEN2A (TT) thyroid cancer cells were treated with the indicated concentrations of drug. Following 1 hour of treatment, cells were harvested and lysates prepared for immunoblotting to detect the indicated proteins. VD=vandetanib; SF=sorafenib.

wild type flies = experiment: Viability of drug treated wild-type flies; assay type: in vivo, Drosophila
Source text: FIG. 4B. Decreased viability of wild type flies by AD58 was mitigated by co-administration of Sorafenib or AZD6244.
FIG. 15. Percent viability of control and drug treated wild-type flies (WT). The proportion of WT pupae and adults that survived from the total number of embryos (indicated in brackets below) are represented as column graphs. (Pupae left, Adults right)

[4] = tested on: 765>dRet^MEN2B wings (Ras/Erk pathway activity); experiment: Adult wing vein pattern assay (765>dRetMEN2B); assay type: in vivo, Drosophila; settings: drug fed flies
Source text: The adult Drosophila wing consists of a stereotypical pattern of […] and two cross-veins; increased Ras/Erk pathway activity leads to ectopic veins (e.g., Refs. (Sawamoto, K. et al., Dev Biol, 1996. 178(1): p. 13-22; Guichard, A. et al., Development, 1999. 126(12): p. 2663-76)). Expression of oncogenic dRet throughout the developing wing (765>dRet^MEN2B) led to disruption of the overall adult wing pattern including ectopic wing veins (FIG. 3D). Reducing gene dosage of the erk ortholog rolled (765>dRet^MEN2B erk−/+) suppressed these phenotypes (FIG. 3D), confirming that wing vein formation is dependent on Ras/Erk activity.

[5] = tested on: MEN2B (MZ) thyroid cancer cells; experiment: Immunoblot analysis of drug-treated MZ cells; assay type: cell-based, human; settings: 1 hour of treatment
Protocol: as §3, §4

[6] = tested on: MZ-CRC-1 (MEN2B) cancer cell line; experiment: MZ-CRC-1 cell viability (MTT assay); assay type: cell-based, human

S6K inhibition, in words (S6K): inhibited
B-Raf (Raf) inhibition, in words (B-Raf): inhibited
Src inhibition, in words (Src): inhibited
Ret inhibition, in words (Ret kinase domain): inhibited
SMILES: CC(C)n1nc(-c2ccc(NC(=O)Nc3ccc(Cl)c(C(F)(F)F)c3)cc2)c2c(N)ncnc21 [AD81]
suppression of dRetMEN2B-induced proliferation, EMT, invasion/basal migration ([1]; oral administration): significantly improved suppression
rescue of ptc>dRetMEN2B viability (pupae, adults), in words (ptc>dRet^MEN2B flies): improved rescue relative to AD57
mTor inhibition, in words (mTor): not and greatly reduced mTor activity and lack significant inhibitory activity

SMILES: COc1cc2c(Nc3ccc(Br)cc3F)ncnc2cc1OCC1CCN(C)CC1 [Vandetanib, reference compound]
reduction of tumor progression relative to vehicle [2]: 1.9 fold

SMILES: CC(C)n1nc(-c2ccc(NC(=O)Nc3ccccc3)cc2)c2c(N)ncnc21 [AD58]
invasion and migration of dRetMEN2B-transformed cells ([1]; co-treatment AD58 plus Sorafenib): significant suppression of invasion and migration; also recorded: blocked
basal phospho-Src in wing epithelium ([1]; oral administration): prevented basal phospho-Src accumulation
suppression of dRetMEN2B-induced proliferation, EMT, invasion/basal migration ([1]; oral administration): failed to prevent invasion/basal migration and not and did not suppress migration
S6K inhibition, in words (S6K): much weaker inhibitor
rescue of ptc>dRetMEN2B viability (pupae, adults), in words (ptc>dRet^MEN2B flies): significant toxicity without detectable efficacy
effect of reducing dTor on drug efficacy/toxicity (ptc>dRet^MEN2B flies; ptc>dRetMEN2B dTor-/+): enhanced the toxicity
effect of reducing erk gene dosage on drug efficacy in viability assay (ptc>dRet^MEN2B flies; ptc>dRetMEN2B, erk-/+): considerably enhanced the efficacy
B-Raf (Raf) inhibition, in words (B-Raf): much weaker inhibitor
phospho-Ret and downstream biomarkers [3]: potent inhibitors
whole animal toxicity (wild type flies; fed to ptc>dRetMEN2B and wild type flies): significant whole animal toxicity
Src inhibition, in words (Src): strongly inhibited
ectopic wing vein / wing pattern phenotype [4]: slightly but consistently enhanced
phospho-Ret and downstream biomarkers [5]: potent inhibitors
mTor inhibition, in words (mTor): more potent; also recorded: stronger inhibitor

SMILES: Cn1cnc2c(F)c(Nc3ccc(Br)cc3Cl)c(C(=O)NOCCO)cc21 [AZD6244, reference compound]
rescue of ptc>dRetMEN2B viability (pupae, adults), in words (ptc>dRet^MEN2B flies): did not rescue viability
AD58-mediated toxicity in wild type flies on co-feeding with the named drug (wild type flies; in vivo): almost completely suppressed

SMILES: CNC(=O)c1cc(Oc2ccc(NC(=O)Nc3ccc(Cl)c(C(F)(F)F)c3)cc2)ccn1 [Sorafenib, reference compound]
suppression of dRetMEN2B-induced proliferation, EMT, invasion/basal migration ([1]; oral administration): measurable rescue that was nonetheless less than AD57; also recorded: did not suppress migration
notum, scutellum and cuticle defects of ptc>dRetMEN2B adults (ptc>dRet^MEN2B flies; drug fed flies): weakly suppressed; also recorded: some cuticle defects
rescue of ptc>dRetMEN2B viability (pupae, adults), in words (ptc>dRet^MEN2B flies): stronger; also recorded: rescued some animals to adulthood but did not significantly increase the proportion that developed to pupariation
AD58-mediated toxicity in wild type flies on co-feeding with the named drug (wild type flies; co-feeding with AD58): almost completely suppressed

SMILES: Nc1ncnc2c1c(-c1cnc3[nH]ccc3c1)nn2C1CCCC1 [PP121, reference compound]
suppression of dRetMEN2B-induced proliferation, EMT, invasion/basal migration ([1]; oral administration): limited ability to significantly rescue the transformation phenotype and not
inhibition of MZ-CRC-1 cell viability / proliferation, in words [6]: levels approaching AD57
